Reference: patent US12187702B2, “Sulfonamideurea compounds” (Inflazome Limited, priority 2018, dated 2025)
Structures can show the parent of a compound that is named as a salt.

What was measured:
[1] = biological target: T1, NLRP3 (Homo sapiens, UniProt Q96P20); test: THP-1 cells pyroptosis assay (LPS + nigericin, resazurin read-out); type: cell-based; parameters: Seed THP-1 cells (25,000 cells/well) containing 1.0 μg/ml LPS; host or cells: THP-1 cells; settings: THP-1 cells, 1 μg/ml LPS, 5 μM nigericin; NLRP3 inhibitory activity; read-out: THP IC50
T1 sequence (Q96P20 whole entry): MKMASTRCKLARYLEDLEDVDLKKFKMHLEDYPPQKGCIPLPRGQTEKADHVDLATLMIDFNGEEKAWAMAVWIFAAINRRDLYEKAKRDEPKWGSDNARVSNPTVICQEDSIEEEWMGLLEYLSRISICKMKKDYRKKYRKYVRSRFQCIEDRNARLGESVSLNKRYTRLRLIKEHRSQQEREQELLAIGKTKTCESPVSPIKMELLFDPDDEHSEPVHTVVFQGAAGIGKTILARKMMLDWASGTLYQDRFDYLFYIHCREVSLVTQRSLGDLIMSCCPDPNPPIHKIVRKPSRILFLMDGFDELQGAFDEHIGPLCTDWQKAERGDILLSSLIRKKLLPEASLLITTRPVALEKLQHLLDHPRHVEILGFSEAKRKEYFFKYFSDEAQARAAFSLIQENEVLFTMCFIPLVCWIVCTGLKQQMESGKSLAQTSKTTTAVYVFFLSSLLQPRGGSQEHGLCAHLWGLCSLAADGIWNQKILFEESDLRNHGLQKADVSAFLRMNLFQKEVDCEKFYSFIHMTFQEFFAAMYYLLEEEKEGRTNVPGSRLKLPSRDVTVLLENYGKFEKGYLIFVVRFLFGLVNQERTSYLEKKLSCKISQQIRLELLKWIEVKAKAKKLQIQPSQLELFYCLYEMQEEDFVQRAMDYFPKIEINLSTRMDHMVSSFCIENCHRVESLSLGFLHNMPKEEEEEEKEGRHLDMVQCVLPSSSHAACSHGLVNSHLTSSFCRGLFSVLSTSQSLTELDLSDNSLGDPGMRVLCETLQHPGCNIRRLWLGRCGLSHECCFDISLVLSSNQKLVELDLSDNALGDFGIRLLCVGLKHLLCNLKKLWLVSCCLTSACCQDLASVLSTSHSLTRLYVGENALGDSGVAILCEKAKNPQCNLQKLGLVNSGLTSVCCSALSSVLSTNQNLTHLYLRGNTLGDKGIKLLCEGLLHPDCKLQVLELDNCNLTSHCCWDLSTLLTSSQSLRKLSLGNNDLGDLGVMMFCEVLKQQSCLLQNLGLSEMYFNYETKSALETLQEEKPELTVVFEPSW
Procedure: THP-1 cells (ATCC #TIB-202) were grown in RPMI containing L-glutamine (Gibco #11835) supplemented with 1 mM sodium pyruvate (Sigma #S8636) and penicillin (100 units/ml)/streptomycin (0.1 mg/ml) (Sigma #P4333) in 10% Fetal Bovine Serum (FBS) (Sigma #F0804). The cells were routinely passaged and grown to confluency (˜10^6 cells/ml). On the day of the experiment, THP-1 cells were harvested and resuspended into RPMI medium (without FBS). The cells were then counted and viability (>90%) checked by Trypan blue (Sigma #T8154). Appropriate dilutions were made to give a concentration of 625,000 cells/ml. To this diluted cell solution was added LPS (Sigma #L4524) to give a 1 μg/ml Final Assay Concentration (FAC). 40 μl of the final preparation was aliquoted into each well of a 96-well plate. The plate thus prepared was used for compound screening.
The following method step-by-step assay was followed for compound screening. • 1. Seed THP-1 cells (25,000 cells/well) containing 1.0 μg/ml LPS in 40 μl of RPMI medium (without FBS) in 96-well, black walled, clear bottom cell culture plates coated with poly-D-lysine (VWR #734-0317) • 2. Add 5 μl compound (8 points half-log dilution, with 10 μM top dose) or vehicle (DMSO 0.1% FAC) to the appropriate wells • 3. Incubate for 3 hrs at 37° C., 5% CO2 • 4. Add 5 μl nigericin (Sigma #N7143) (FAC 5 μM) to all wells • 5. Incubate for 1 hr at 37° C., 5% CO2 • 6. At the end of the incubation period, spin plates at 300×g for 3 mins and remove supernatant • 7. Then add 50 μl of resazurin (Sigma #R7017) (FAC 100 μM resazurin in RPMI medium without FBS) and incubate plates for a further 1-2 hrs at 37° C. and 5% CO2 • 8. Plates were read in an Envision reader at Ex 560 nm and Em 590 nm • 9. IC50 data is fitted to a non-linear regression equation (log inhibitor vs response-variable slope 4-parameters)

[2] = biological target: T1, NLRP3; test: Human whole blood IL-1β release assay (LPS + nigericin, AlphaLisa); type: cell-based; parameters: Plate out 80 μl of whole blood containing 1 μg/ml of LPS; from tissue; host or cells: human whole blood from healthy donors; settings: human whole blood, 1 μg/ml LPS, 10 μM nigericin; IL-1β release; read-out: HWB IC50
Procedure: For systemic delivery, the ability to inhibit NLRP3 when the compounds are present within the bloodstream is of great importance. For this reason, the NLRP3 inhibitory activity of a number of compounds in human whole blood was investigated in accordance with the following protocol.
Human whole blood in Li-heparin tubes was obtained from healthy donors from a volunteer donor panel. • 1. Plate out 80 μl of whole blood containing 1 μg/ml of LPS in 96-well, clear bottom cell culture plate (Corning #3585) • 2. Add 10 μl compound (8 points half-log dilution with 10 μM top dose) or vehicle (DMSO 0.1% FAC) to the appropriate wells • 3. Incubate for 3 hrs at 37° C., 5% CO2 • 4. Add 10 μl nigericin (Sigma #N7143) (10 μM FAC) to all wells • 5. Incubate for 1 hr at 37° C., 5% CO2 • 6. At the end of the incubation period, spin plates at 300×g for 5 mins to pellet cells and remove 20 μl of supernatant and add to 96-well v-bottom plates for IL-1β analysis (note: these plates containing the supernatants can be stored at −80° C. to be analysed at a later date) • 7. IL-1β was measured according to the manufacturer protocol (Perkin Elmer-AlphaLisa IL-1 Kit AL220F-5000) • 8. IC50 data is fitted to a non-linear regression equation (log inhibitor vs response-variable slope 4-parameters)

Row | Compound | IC50 [1] [µM] | IC50 [2] [µM]
1 | CN1CC2CN(S(=O)(=O)NC(=O)Nc3c4c(cc5c3CCC5)CCC4)CC21 (centres unmarked) [Example 86, N-((1,2,3,5,6,7-Hexahydro-s-indacen-4-yl)carbamoyl)-6-methyl-3,6-diazabicyclo[3.2.0]heptane-3-sulfonamide] | < 0.5 | < 0.5
2 | CC(C)NCCNS(=O)(=O)NC(=O)Nc1c2c(cc3c1CCC3)CCC2 [Example 26] | < 0.5 | < 1
3 | CN1CCC[C@H]1CN(C)S(=O)(=O)NC(=O)Nc1c2c(cc3c1CCC3)CCC2 [Example 115, 3-((S)—N-Methyl-N-((-1-methylpyrrolidin-2-yl)methyl)sulfamoyl)-1-(1,2,3,5,6,7-hexahydro-s-indacen-4-yl)urea, sodium salt] | < 0.5 | < 1
4 | CN(C)[C@H]1C[C@H]2CC[C@@H](C1)N2S(=O)(=O)NC(=O)Nc1c2c(cc3c1CCC3)CCC2 [Example 79, (1R,3r,5S)-3-(Dimethylamino)-N-((1,2,3,5,6,7-hexahydro-s-indacen-4-yl)carbamoyl)-8-azabicyclo[3.2.1]octane-8-sulfonamide] |  | < 0.5
5 | CN(C)[C@@H]1C[C@H]2CC[C@@H](C1)N2S(=O)(=O)NC(=O)Nc1c2c(cc3c1CCC3)CCC2 [Example 77, (1R,3s,5S)-3-(Dimethylamino)-N-((1,2,3,5,6,7-hexahydro-s-indacen-4-yl)carbamoyl)-8-azabicyclo[3.2.1]octane-8-sulfonamide] | < 10 | 
6 | CN(C)CCN(CCN(C)C)S(=O)(=O)NC(=O)Nc1c2c(cc3c1CCC3)CCC2 [Example 51, 3-(N,N-Bis(2-(dimethylamino)ethyl)sulfamoyl)-1-(1,2,3,5,6,7-hexahydro-s-indacen-4-yl)urea, potassium salt] | < 10 | 
7 | CC(C)N1[C@@H]2CC[C@H]1C[C@@H](NS(=O)(=O)NC(=O)Nc1c3c(cc4c1CCC4)CCC3)C2 [Example 33, (1R,3r,5S)-8-Isopropyl-8-azabicyclo[3.2.1]octan-3-(N-((1,2,3,5,6,7-hexahydro-s-indacen-4-yl)carbamoyl)-sulfonamide)] | < 5 | 
8 | O=C(Nc1c2c(cc3c1CCC3)CCC2)NS(=O)(=O)N1[C@@H]2CC[C@H]1C[C@@H](N1CCCC1)C2 [Example 70, (1R,3r,5S)—N-((1,2,3,5,6,7-Hexahydro-s-indacen-4-yl)carbamoyl)-3-(pyrrolidin-1-yl)-8-azabicyclo[3.2.1]octane-8-sulfonamide] | < 1 | 
9 | CN(C)CC1CCCN1S(=O)(=O)NC(=O)Nc1c2c(cc3c1CCC3)CCC2 (centres unmarked) [Example 82, 2-((Dimethylamino)methyl)-N-((1,2,3,5,6,7-hexahydro-s-indacen-4-yl)carbamoyl)pyrrolidine-1-sulfonamide, potassium salt] | < 5 | 
10 | CN1C[C@@H]2C[C@H]1CN2S(=O)(=O)NC(=O)Nc1c2c(cc3c1CCC3)CCC2 [Example 67, (1S,4S)—N-((1,2,3,5,6,7-Hexahydro-s-indacen-4-yl)carbamoyl)-5-methyl-2,5-diazabicyclo[2.2.1]heptane-2-sulfonamide, potassium salt] | < 1 | 
11 | CN1CC(CNS(=O)(=O)NC(=O)Nc2c3c(cc4c2CCC4)CCC3)C1 [Example 69, 3-(N-((1-Methylazetidin-3-yl)methyl)sulfamoyl)-1-(1,2,3,5,6,7-hexahydro-s-indacen-4-yl)urea, potassium salt] | < 1 | 
12 | CCN(CC)CCN(CC)S(=O)(=O)NC(=O)Nc1c2c(cc3c1CCC3)CCC2 [Example 18, 3-(N-(2-(Diethylamino)ethyl)-N-ethylsulfamoyl)-1-(1,2,3,5,6,7-hexahydro-s-indacen-4-yl)urea, potassium salt] | < 5 | 
13 | CC(C)c1cc(F)cc(-c2ccnc(C#N)c2)c1NC(=O)NS(=O)(=O)N(C)CC1CCCN1C (centres unmarked) [Example 102] | < 5 | 
14 | CN(C)CC(C)(C)NS(=O)(=O)NC(=O)Nc1c2c(cc3c1CCC3)CCC2 [Example 59, 3-(N-(1-(Dimethylamino)-2-methylpropan-2-yl)sulfamoyl)-1-(1,2,3,5,6,7-hexahydro-s-indacen-4-yl)urea, potassium salt] | < 5 | 
15 | O=C(Nc1c2c(cc3c1CCC3)CCC2)NS(=O)(=O)N1CC(N2CCCC2)C1 [Example 23, potassium salt] | < 5 | 
16 | CC(C)CN(CCN(C)C)S(=O)(=O)NC(=O)Nc1c2c(cc3c1CCC3)CCC2 [Example 12, 3-(N-(2-(Dimethylamino)ethyl)-N-isobutylsulfamoyl)-1-(1,2,3,5,6,7-hexahydro-s-indacen-4-yl)urea, potassium salt] | < 5 | 
17 | CN1CCCCC1CN(C)S(=O)(=O)NC(=O)Nc1c2c(cc3c1CCC3)CCC2 (centres unmarked) [Example 22, 3-(N-methyl-N-((1-methylpiperidin-2-yl)methyl)sulfamoyl)-1-(1,2,3,5,6,7-hexahydro-s-indacen-4-yl)urea, potassium salt] | < 0.5 | 
18 | CN(C)C1CN(S(=O)(=O)NC(=O)Nc2c3c(cc4c2CCC4)CCC3)C1 [Example 17, 3-(Dimethylamino)-N-((1,2,3,5,6,7-hexahydro-s-indacen-4-yl)carbamoyl)azetidine-1-sulfonamide, potassium salt] | < 1 | 
19 | CC(C)c1cc(F)cc(-c2ccnc(C#N)c2)c1NC(=O)NS(=O)(=O)N(C)C1CCN(C)C1 (centres unmarked) [Example 101] | < 5 | 
20 | O=C1Cc2cc(NS(=O)(=O)NC(=O)Nc3c4c(cc5c3CCC5)CCC4)ccc2N1 [Example 24, 3-(N-(2-Oxoindolin-5-yl)sulfamoyl)-1-(1,2,3,5,6,7-hexahydro-s-indacen-4-yl)urea, potassium salt] | < 10 | 
21 | CC(CN(C)C)NS(=O)(=O)NC(=O)Nc1c2c(cc3c1CCC3)CCC2 (centres unmarked) [Example 16, 3-(N-(1-(Dimethylamino)propan-2-yl)sulfamoyl)-1-(1,2,3,5,6,7-hexahydro-s-indacen-4-yl)urea, potassium salt] | < 5 | 
22 | CC(CN(C)C)N(C)S(=O)(=O)NC(=O)Nc1c2c(cc3c1CCC3)CCC2 (centres unmarked) [Example 27, 3-(N-(1-(dimethylamino)propan-2-yl)-N-methyl)sulfamoyl)-1-(1,2,3,5,6,7-hexahydro-s-indacen-4-yl)urea, potassium salt] | < 1 | 
23 | CC(=O)N(C)CCN(C)S(=O)(=O)NC(=O)Nc1c2c(cc3c1CCC3)CCC2 [Example 41, N-(2-((N-((1,2,3,5,6,7-Hexahydro-s-indacen-4-yl)carbamoyl)sulfamoyl)(methyl)amino)ethyl)-N-methylacetamide, potassium salt] | < 5 | 
24 | CCN(CC)CCN(C)S(=O)(=O)NC(=O)Nc1c2c(cc3c1CCC3)CCC2 [Example 53, 3-(N-(2-(Diethylamino)ethyl)-N-methyl)sulfamoyl)-1-(1,2,3,5,6,7-hexahydro-s-indacen-4-yl)urea, potassium salt] | < 5 | 
25 | CCN1[C@@H]2CC[C@H]1C[C@H](NS(=O)(=O)NC(=O)Nc1c3c(cc4c1CCC4)CCC3)C2 [Example 74, (1R,3s,5S)-8-Ethyl-8-azabicyclo[3.2.1]octan-3-(N-((1,2,3,5,6,7-hexahydro-s-indacen-4-yl)carbamoyl)-sulfonamide)] | < 5 | 
26 | CC(C)N1[C@@H]2CC[C@H]1C[C@H](NS(=O)(=O)NC(=O)Nc1c3c(cc4c1CCC4)CCC3)C2 [Example 63, (1R,3s,5S)-8-isopropyl-8-azabicyclo[3.2.1]octan-3-(N-((1,2,3,5,6,7-hexahydro-s-indacen-4-yl)carbamoyl)-sulfonamide)] | < 1 | 
